# From patent US20080249035A1, “Polymorph of Clarithromycin (Form V)” (Gruenenthal GmbH, priority 2007, published 2008)
# Assay: Interconversion tests in acetone (thermodynamic/physical stability of polymorphic forms)
# Assay type: physicochemical
# Method: To investigate physical stability in comparison with the known forms form I and form II, the following experiments were carried out (interconversion tests): • a) about 100 mg of form I and approx. 100 mg of form II were put in a 20 ml vial and suspended in 2.5 ml acetone p.a. • b) about 100 mg of form V and approx. 100 mg of form I were put in a 20 ml vial and suspended in 2.5 ml acetone p.a. • c) about 100 mg of form V and approx. 100 mg of form II were put in a 20 ml vial and suspended in 2.5 ml acetone p.a.
# All three suspensions were first shaken at room temperature (approx. 20° C.) on a PLS synthesizer at 400 rpm for approx. 2 h. For 20 h the temperature of the suspensions was raised to 40° C. and then left to cool to room temperature (approx. 20° C.) again.
# Then the solids were filtered with suction on a G4 frit, made into a slurry with 0.5 ml acetone p.a., washed, and then dried by suction in an air stream, applying a light vacuum.
# The crystalline solids were in each case characterized by DSC, XRPD, Raman and TG investigations.
SMILES,"Product (polymorphic form obtained from the starting mixture in the interconversion test) (approx. 100 mg of each form suspended in 2.5 ml acetone, approx. 2 h at room temperature (approx. 20° C.), 20 h at 40° C., cooled to room temperature, solids characterized by DSC, XRPD, Raman, TG)","Relative thermodynamic stability of the forms under the test conditions (interconversion tests in acetone, 20 to 40° C.)"
"CC[C@H]1OC(=O)[C@H](C)[C@@H](O[C@H]2C[C@@](C)(OC)[C@@H](O)[C@H](C)O2)[C@H](C)[C@@H](O[C@@H]2O[C@H](C)C[C@H](N(C)C)[C@H]2O)[C@](C)(OC)C[C@@H](C)C(=O)[C@H](C)[C@@H](O)[C@]1(C)O [Form I/Form II, clarithromycin]",Form II,–
"CC[C@H]1OC(=O)[C@H](C)[C@@H](O[C@H]2C[C@@](C)(OC)[C@@H](O)[C@H](C)O2)[C@H](C)[C@@H](O[C@@H]2O[C@H](C)C[C@H](N(C)C)[C@H]2O)[C@](C)(OC)C[C@@H](C)C(=O)[C@H](C)[C@@H](O)[C@]1(C)O [Form II, clarithromycin]",–,thermodynamically more stable than form V as well as more stable than form I
